Laboratory results as given in patent US8377913B2, “Vitamin D receptor activators and methods of making” (AbbVie Inc., priority 2007, dated 2013).

System: 5/6 NX uremic rats
Assay: Study 2: left ventricular hypertrophy (LVH) in 5/6 NX uremic rats
Format: in vivo, rat
Settings: 1, 10 and 100 μg/kg, 3×/wk for 6 wks
Method: Study 2: To determine if treatment with Example 1 (1, 10 & 100 μg/kg) reduces left ventricular hypertrophy (LVH) in 5/6 NX uremic rats.
Methods: Previous studies have shown that the 5/6 NX rat is hypertensive and presents with left ventricular hypertrophy. Therefore, 5/6 NX rats were received from Charles River at 2 weeks uremia and fed TD04151 (0.6% Ca and 0.9 % P) 4 weeks prior to study. 5/6 NX rats were treated with Example 1 (1, 10 & 100 μg/kg) or vehicle (95% PG/5% EtOH) 3×/week for six weeks. On Days 0, 13 and 41 blood was drawn (24 hours post-dose). At the end of the six week treatment period, rats were anesthetized with isoflurane and echocardiography was performed. Left ventricular mass was determined according to the American Society of Echocardiography recommendations using the cube method. After euthanasia, direct measurements of left ventricular weight were obtained. Note: Vehicle treated SHAM and 5/6 NX rats (3×/week for six weeks) from previous studies were included in this study for comparison purposes. All values are mean±SEM. Data was analyzed using ANOVA and where noted t-test. * Indicates p<0.05 compared to SHAM.

C=C1[C@H](O)CC(=C/C=C2\CCC[C@]3(C)[C@@H]([C@H](C)COC(=O)C(C)(C)C)CC[C@@H]23)C[C@H]1O [Example 1, (2S)-2-[(1R,3R,7E, 17β)-1,3-dihydroxy-2-methylene-9,10-secoestra-5,7-dien-17-yl]propyl pivalate]
exacerbation of LVH compared to controls: no exacerbation
